# According to patent US20260085073A1, “PYRAZOLYLCARBOXAMIDE COMPOUNDS AND THEIR USE IN THERAPY” (Hotspot Therapeutics, Inc., priority 2022, published 2026):
# Target: T1, MALT1 (Homo sapiens, UniProt Q9UDY8)
# T1 construct: Avi-tagged FL MALT-1 (Pharmaron, stored at −70° C.); Avi-tag
# T1 sequence (Q9UDY8 1-824): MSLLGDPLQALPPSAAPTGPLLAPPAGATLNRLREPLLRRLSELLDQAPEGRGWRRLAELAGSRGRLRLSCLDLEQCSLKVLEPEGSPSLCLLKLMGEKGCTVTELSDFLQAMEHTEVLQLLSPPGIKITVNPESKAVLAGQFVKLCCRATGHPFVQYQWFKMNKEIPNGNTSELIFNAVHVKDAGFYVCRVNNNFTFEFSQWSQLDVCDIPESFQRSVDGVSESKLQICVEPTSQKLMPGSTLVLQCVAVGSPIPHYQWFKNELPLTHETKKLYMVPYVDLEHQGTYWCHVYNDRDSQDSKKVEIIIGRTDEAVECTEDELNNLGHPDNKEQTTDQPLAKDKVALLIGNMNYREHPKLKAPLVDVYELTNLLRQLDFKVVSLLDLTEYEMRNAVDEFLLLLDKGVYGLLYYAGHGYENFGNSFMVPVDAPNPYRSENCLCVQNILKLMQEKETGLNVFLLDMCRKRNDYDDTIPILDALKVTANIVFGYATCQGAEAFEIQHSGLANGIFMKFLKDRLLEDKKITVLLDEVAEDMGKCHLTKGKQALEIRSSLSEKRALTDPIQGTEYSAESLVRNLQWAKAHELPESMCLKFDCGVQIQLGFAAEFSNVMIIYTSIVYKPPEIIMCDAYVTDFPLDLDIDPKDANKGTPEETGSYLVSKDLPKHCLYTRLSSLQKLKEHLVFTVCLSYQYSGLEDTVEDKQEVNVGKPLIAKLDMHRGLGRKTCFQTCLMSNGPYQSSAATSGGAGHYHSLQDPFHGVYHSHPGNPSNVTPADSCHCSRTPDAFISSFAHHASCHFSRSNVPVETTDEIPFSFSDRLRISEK
# Assay: MALT1 inhibition assay (MALT-1 Fluorogenic Peptide Cleavage Assay, Ac-LRSR-AMC substrate)
# Type: biochemical
# Settings: Avi-tagged FL MALT-1, 30 min pre-incubation, 90 min reaction at room temperature, fluorescence intensity
# Procedure, shortened: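 Full-length Avi-tagged MALT1 pre-incubated 30 min at room temperature with compounds (2% DMSO final) in HEPES pH 6.89, sodium citrate, TCEP, EDTA, CHAPS buffer. Ac-LRSR-AMC added from 50 µM (Km) or […] working stocks; 90 min at room temperature, AMC fluorescence (ex 342/em 441 nm); IC50 from % inhibition curves.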
row,SMILES,IC50
1,Cc1cn2c(-c3nn(C)c(C(=O)Nc4ccnc(C5CC5)c4)c3C(F)(F)F)cccc2n1 [Compound I-283],> 10000 nM
2,Cn1nc(-c2cccc3nscc23)c(C(F)(F)F)c1C(=O)Nc1cnc(-n2nccn2)c(Cl)c1 [Compound I-285],< 500 nM
3,Cn1nc(-c2cccc3ncsc23)c(C(F)(F)F)c1C(=O)Nc1cnc(-n2nccn2)c(C(F)F)c1 [Compound I-286],< 500 nM
4,COc1cc(NC(=O)c2c(C(F)(F)F)c(-c3ccccc3)nn2C)ccn1 [Compound I-287],> 10000 nM
5,Cc1cc(NC(=O)c2c(C(F)(F)F)c(-c3ccccc3)nn2C)cc(C)n1 [Compound I-288],2500 to 10000 nM
6,Cn1nc(-c2ccc(F)c3nccn23)c(C(F)(F)F)c1C(=O)Nc1ccnc(C(F)(F)F)c1 [Compound I-291],500 to 2500 nM
7,CN(C)c1nc2cccc(-c3nn(C)c(C(=O)Nc4ccnc(C(F)(F)F)c4)c3C(F)(F)F)c2s1 [Compound I-292],> 10000 nM

# Results, then the compound that gave them:
row,IC50,SMILES
1,> 10000 nM,COc1nc2cccc(-c3nn(C)c(C(=O)Nc4ccnc(C(F)(F)F)c4)c3C(F)(F)F)c2s1 [Compound I-293]
2,< 500 nM,COc1nc2cccc(-c3nn(C)c(C(=O)Nc4cnc(-n5nccn5)c(Cl)c4)c3C(F)(F)F)c2s1 [Compound I-294]
3,2500 to 10000 nM,Cn1nc(-c2cncc3ncccc23)c(C(F)(F)F)c1C(=O)Nc1ccnc(C(F)(F)F)c1 [Compound I-295]
4,500 to 2500 nM,Cn1nc(-c2c(F)ccc3nccn23)c(C(F)(F)F)c1C(=O)Nc1ccnc(C(F)(F)F)c1 [Compound I-296]
5,< 500 nM,Cc1nc2cccc(-c3nn(C)c(C(=O)Nc4cnc(-n5nccn5)c(Cl)c4)c3C(F)(F)F)c2s1 [Compound I-297]
6,> 10000 nM,Cc1nc2cccc(-c3nn(C)c(C(=O)Nc4ccnc(C5CC5)c4)c3C(F)(F)F)c2s1 [Compound I-298]
7,< 500 nM,"Cn1nc(-c2cccc3nc(N)sc23)c(C(F)(F)F)c1C(=O)Nc1cnc(-n2nccn2)c(Cl)c1 [Compound I-299, 3-(2-aminobenzo[d]thiazol-7-yl)-N-(5-chloro-6-(2H-1,2,3-triazol-2-yl)pyridin-3-yl)-1-methyl-4-(trifluoromethyl)-1H-pyrazole-5-carboxamide]"
